GI50 and TGI data for eight molecules are collected here from PubChem BioAssay (NCI).

Common to all, as to assay: DTP human tumour cell line panel, 48 h
Experiment [1] has as its system 786-0 renal.
The subject of experiment [2] is ACHN renal.
The subject of experiment [3] is CAKI-1 renal.
Experiment [4] concerns HOP-62 NSCLC.
The subject of experiment [5] is IGROV1 ovarian.
For experiment [6], the system named is M14 melanoma.
For experiment [7], the system named is SK-MEL-5 melanoma.
In experiment [8] the test system is SW-620 colon.
The subject of experiment [9] is TK-10 renal.
Experiment [10] concerns UO-31 renal.

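1) Cells in 96-well plates. 2) Compound, 48 h, 5 concentrations. 3) Linear interpolation between surrounding doses. 4) Unreached endpoint = highest concentration. Abbreviation: GI50, concentration required for 50% inhibition of growth. At the TGI there is no net growth.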 Bounds are passed on as bounds.

In the case of `O=C1c2ccccc2-c2c1c1ccccc1c(=O)n2CCNCCn1c2c(c3ccccc3c1=O)C(=O)c1ccccc1-2`, the GI50 is 12.2 µM in [1]; above 25 µM in [2]; above 25 µM in experiment [3]; above 25 µM in experiment [4]; above 25 µM in experiment [5]; above 25 µM in experiment [6]. Also, the GI50 in experiment [7], in experiment [8], in experiment [9] and in experiment [10] was above 25 µM in each case. The TGI in [1], in experiment [2], in [3], in experiment [4], in [5] and in experiment [6] was above 25 µM each time. The TGI in experiment [7], in experiment [8], in experiment [9] and in experiment [10] was above 25 µM throughout.

Take `COc1cc2nc(-c3ccc(C(F)(F)F)cc3)cc(OCCCN3CCCC3)c2cc1OC`: the GI50 in [1] is 1.88 µM; in experiment [2], 0.754 µM; in [3], 0.245 µM; in [4] it was 1.42 µM; in [5], 0.593 µM; in experiment [6], 0.303 µM. Besides, the GI50 in [7] was 0.51 µM; in experiment [8], 2.59 µM; in [9] it was 7.51 µM; in experiment [10], 1.59 µM. Also, the TGI in experiment [1] is 6.03 µM; in experiment [2] it was above 34.1 µM; in experiment [3] it was 14 µM; in experiment [4] it was 18.5 µM; in experiment [5], 14.5 µM; in [6], 1.05 µM. The TGI in experiment [7] was 1.28 µM; in experiment [8] it was 29.6 µM; in [9] it was above 34.5 µM; in experiment [10], 14.2 µM.

Turning to `CCCCCCCCCCCC1CC(=O)NCCCN(C)CCCCN(C)CCCN1C` (stereo not given), the total growth inhibition concentration (TGI) is 2.89 µM in experiment [1]; 3.08 µM in [2]; 3.54 µM in [3]; 3.04 µM in [4]; 3.22 µM in experiment [5]; 3.24 µM in [6]. Further, the TGI in [7] is 3.43 µM; in experiment [8], 2.35 µM; in [9], 3.12 µM; in [10] it was 3.11 µM.

Regarding `Cc1ccc(NC(=O)/C(Cc2cc(=O)oc3cc(O)ccc23)=N\NC(=O)C[N+](C)(C)C)cc1C`, the TGI in [1], in [2], in [3], in experiment [4], in experiment [5] and in experiment [6] was above 100 µM throughout. Moreover, the concentration for total growth inhibition (TGI) in experiment [7], in [8], in experiment [9] and in experiment [10] was above 100 µM each time.

`O=C1c2ccccc2-c2c1c1c(NCCCO)nc3ccccc3c1n2Cc1ccccc1`: the GI50 in [1] was 21.3 µM; in experiment [2], 21.4 µM; in experiment [3] it was 18.6 µM; in [4], 19.3 µM; in experiment [5], 48.6 µM; in experiment [6], 26.8 µM. Also, the GI50 in experiment [7] is 31 µM; in [8], 27.4 µM; in [9], 23 µM; in [10], 24.6 µM. Also, the TGI was 43.7 µM in experiment [1]; 59.4 µM in experiment [2]; 38.4 µM in experiment [3]; 35.7 µM in experiment [4]; above 100 µM in experiment [5]; 58.2 µM in experiment [6]. The TGI is above 100 µM in [7], above 100 µM in [8], 41.1 µM in experiment [9] and 73.7 µM in experiment [10].

With `Cc1ccc(NC(=O)/C(Cc2nc3ccc([N+](=O)[O-])cc3[nH]c2=O)=N\NC(=O)C[n+]2ccccc2)c(C)c1`, the TGI is 79.9 µM in experiment [1]; 47.6 µM in experiment [2]; above 100 µM in experiment [3]; above 100 µM in experiment [4]; above 100 µM in experiment [5]; above 100 µM in experiment [6]. The concentration for total growth inhibition (TGI) is 55.4 µM in experiment [7], above 100 µM in [8], 64.4 µM in experiment [9] and 41.1 µM in experiment [10].

For `COc1ccc(-c2cnoc2-c2cc(OC)c3c(c2)OCCO3)cc1`, the GI50 in experiment [1] was 0.0629 µM; in experiment [2], 0.108 µM; in experiment [3], 0.0409 µM; in experiment [4] it was 0.0319 µM; in experiment [5], 0.0924 µM; in experiment [6], 0.0274 µM. Moreover, the GI50 in experiment [7] is 0.0222 µM; in [8], 0.0302 µM; in experiment [9], 16.7 µM; in experiment [10], 0.283 µM. The TGI in [1] was above 56.5 µM; in experiment [2], above 58.9 µM; in experiment [3], above 100 µM; in [4] it was 56.6 µM; in experiment [5], above 100 µM; in [6] it was above 46.8 µM. Moreover, the TGI in experiment [7] is 0.592 µM; in experiment [8], above 100 µM; in experiment [9] it was above 100 µM; in [10], above 100 µM.

For the molecule `CCNCCNc1cc(-c2ccc(C#N)cc2)c(C#N)c2nc3ccccc3n12`, the GI50 in experiment [1] is 2.2 µM; in experiment [2] it was 2.34 µM; in experiment [3], 3.5 µM; in experiment [4], 3.13 µM; in [5], 4.53 µM; in experiment [6], 1.88 µM. For the same molecule, the GI50 in experiment [7] was 2.28 µM; in experiment [8], 2.68 µM; in experiment [9] it was 2.03 µM; in experiment [10], 1.62 µM. Besides, the TGI in [1] turned out to be 7.46 µM; in experiment [2], 5.73 µM; in experiment [3], 13.5 µM; in experiment [4] it was 14.9 µM; in [5] it was 18 µM; in [6], 3.79 µM. Besides, the TGI came to 5.67 µM in experiment [7], 11.1 µM in experiment [8], 5.74 µM in [9] and 3.1 µM in [10].
